Entries after “also recorded” stand apart in the source; their conditions may differ.
Experiments:
BMΦ and D1 cells = test: Lipid A-induced IL-1β production (ELISA); assay type: cell-based, Mouse; conditions: lipid A (0.5 µM) stimulation, effect proportional to concentration
Description: (§1) • Figure 1. Antagonistic activity of compounds Ia, Ic and Id on lipid A-stimulated cytokine production in BMDC, BMØ and D1 cells. TNFα production was measured in the supernatants 24 h later. From the right: lipid A (0.5µM), cells treated with lipid A alone; DMSO: cells incubated in the presence of complete medium plus DMSO; inhibitor 50 µM, cells treated only with monosaccharides Ia, Ic and Id; other columns, lipid A + compounds […] at increasing doses. The data represent means and standard deviations of triplicate wells. This is a representative of three independent experiments. *, p < 0.05; **, p < 0.01; ***, p< 0.001. • Figure 2. TLR-4 selectivity of monosaccharide Id. […] IL-1β was measured in the supernatants by ELISA. […] Lower panels, TNFα production measured by ELISA 24 h after stimulation with CpG (selective for TLR-9) or PAM3Cys-SK4 (selective for TLR-2) in the presence of compound Id. […] The cells were then analyzed by FACS for the presence of annexin V and propidium iodide (PI) double positive cells. […] NF-kB activation was evaluated in the nuclear extract 2 h later and expressed as optical density (OD) at 450 nm. […] Effect of different doses of compound Id on carrageenan induced edema in mice measured 4h after the exposure and expressed as difference between the paw volume of treated paw versus the contralateral paw. […]

human TLR-4A = molecular target: T1, human TLR-4A (Homo sapiens, UniProt O00206+Q9Y6Y9); test: NF-kB activation in HEK-293 cells transfected with TLR-4, stimulated with lipid A; assay type: cell-based; conditions: TLR-4-transfected HEK 293; lipid A (0.5 µM) after pre-exposure to compound; measured 2 h later
T1 construct: host or cells: HEK-293 (HEK-293-hTLR-4A)
Description: as §1

BMΦ, BMDC and D1 cells = test: Lipid A-induced TNFα production in macrophages and dendritic cells (ELISA); assay type: cell-based, Mouse
Description: BMΦ and DC were derived from bone marrow cells and divided in two separate cultures. For DC preparation bone marrow cells were cultured in complete IMDM supplemented with 10% supernatant of GM-CSF-transduced B16 tumor cells [R. Soiffer, T. Lynch, M. Mihm, K. Jung, C. Rhuda, J. C. Schmollinger, F. S. Hodi, L. Liebster, P. Lam, S. Mentzer, S. Singer, K. K. Tanabe, A. B. Cosimi, R. Duda, A. Sober, A. Bhan, J. Daley, D. Neuberg, G. Parry, J. Rokovich, L. Richards, J. Drayer, A. Berns, S. Clift, L. K. Cohen, R. C. Mulligan, G. Dranoff, Proc. Natl. Acad. Sci. U S A. 1998, 95(22), 13141-13146]. Fresh medium was added every 2 d. After 7-10 d of culture, cells were analyzed for CD11c expression and used in assays when 90% were CD11c positive. For BMΦ preparation bone marrow cells were cultured in complete IMDM supplemented with 10% supernatant of M-CSF-transduced NIH3T3 cells. Also in this case, fresh medium was added every 2 d. After 7-10 d of culture, cells were analyzed for Mac1 expression and used in assays when at least 90% were Mac1 positive. D1 cells were cultured in complete IMDM supplemented with 10% supernatant of GM-CSF-transduced B16 tumor cells.
D1 cells, BMDC and MΦ were plated in 48 well plates at a concentration of 200000 cells/well in 200µL of medium. One or two hours after plating they were treated with different amounts of compounds Ic and Id for 30 min and then stimulated with Lipid A from Escherichia coli (F583, Rd mutant Sigma, 0.5µM) for 18 h.
Given the pivotal role of early-activated DC and MΦ in directing inflammatory reactions, compounds Ia, Ic and Id were tested for their ability to antagonize the stimulatory activity of lipid A on bone marrow derived macrophages (BMΦ) and DC (BMDC) by interfering with their capacity to induce TNFα production. As source of DC, D1 cells, a long term growth factor (GM-CSF)-dependent DC line [C. Winzler et al. J. Exp. Med. 1997, 185, 317-327] were also used. BMΦ, BMDC and D1 cells were stimulated with lipid A (0.5 µM) after a pre-exposure to compounds Ia, Ic and Id and the amount of TNFα released in the supernatant was measured by ELISA.

T1 sequence (O00206 24-839): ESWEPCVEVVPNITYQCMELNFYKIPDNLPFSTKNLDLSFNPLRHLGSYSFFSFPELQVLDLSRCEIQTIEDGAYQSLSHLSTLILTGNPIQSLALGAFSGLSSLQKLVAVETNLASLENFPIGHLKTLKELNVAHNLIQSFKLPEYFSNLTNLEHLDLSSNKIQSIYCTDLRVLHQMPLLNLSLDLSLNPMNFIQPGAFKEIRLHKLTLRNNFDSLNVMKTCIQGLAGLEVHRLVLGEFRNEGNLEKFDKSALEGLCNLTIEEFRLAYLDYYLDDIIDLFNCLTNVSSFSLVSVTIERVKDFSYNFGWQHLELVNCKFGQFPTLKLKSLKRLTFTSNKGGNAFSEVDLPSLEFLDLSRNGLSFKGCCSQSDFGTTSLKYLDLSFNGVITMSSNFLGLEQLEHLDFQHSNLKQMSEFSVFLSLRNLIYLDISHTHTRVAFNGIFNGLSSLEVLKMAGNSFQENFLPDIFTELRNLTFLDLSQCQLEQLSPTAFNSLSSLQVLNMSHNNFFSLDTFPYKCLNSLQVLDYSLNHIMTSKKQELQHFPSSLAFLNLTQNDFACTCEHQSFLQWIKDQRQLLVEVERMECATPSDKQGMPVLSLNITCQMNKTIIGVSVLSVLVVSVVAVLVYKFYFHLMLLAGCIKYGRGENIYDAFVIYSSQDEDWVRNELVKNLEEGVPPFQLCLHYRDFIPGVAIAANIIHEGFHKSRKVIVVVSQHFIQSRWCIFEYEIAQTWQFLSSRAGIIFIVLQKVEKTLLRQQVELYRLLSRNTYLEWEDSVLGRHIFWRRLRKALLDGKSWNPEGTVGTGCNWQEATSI
T1 sequence (Q9Y6Y9 17-160 limits assumed): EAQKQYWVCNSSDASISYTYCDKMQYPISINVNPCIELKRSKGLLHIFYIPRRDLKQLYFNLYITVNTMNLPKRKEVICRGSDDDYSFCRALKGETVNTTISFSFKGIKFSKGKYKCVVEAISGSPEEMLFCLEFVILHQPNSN

## CCCCCCCCCCCCCCO[C@H]1[C@@H](OC)O[C@H](C[N+](C)(C)C2CCCC2)[C@@H](O)[C@@H]1OCCCCCCCCCCCCCC [Compound Id, methyl 6-deoxy-6-N,N',N"-dimethylcyclopentylammonium-2,3-di-O-tetradecyl-α-D-glucopyranoside]
BMΦ and D1 cells
  IL-1β synthesis: inhibited
Human TLR-4A
  NF-kB activation: able to significantly counteract the effect of lipid A
BMΦ, BMDC and D1 cells; cells treated with compound alone, without lipid A
  direct inflammatory function (stimulating cytokines production): did not show any direct inflammatory function
BMΦ, BMDC and D1 cells; comparison between compounds Ia, Ic and Id
  relative potency as inhibitor of lipid A: more potent than Ic
BMΦ, BMDC and D1 cells; stimulation with lipid A (0.5 µM) after pre-exposure to compound, TNFα released in the supernatant measured by ELISA, BMΦ, BMDC and D1 cells
  TNFα production: interfered with lipid A's action in a dose-dependent manner; also recorded: lower activity; also recorded: inhibited
